Entries after “also recorded” stand apart in the source; their conditions may differ.
What was measured:
[1] = test system: 86 kDa form of CBP86; test: In vitro capacitation of human sperm, anti-phosphotyrosine (RC-20) 2-D immunoblot of CBP86; assay type: cell-based; conditions: for Capacitation-induced tyrosine phosphorylation of the 86 kDa CBP86 isoforms: human sperm capacitated in HTF plus HSA plus 100 μμM progesterone plus 100, 200 or 400 μμM of inhibitor
Method: Preparation of semen specimens and solubilization of sperm proteins were performed as previously described (Naaby-Hansen et al, 1997a.) For analytical two-dimensional electrophoresis the detergent/urea extracted proteins were separated by isoelectric focusing (IEF) in acrylamide tube gels prior to second dimensional gel electrophoresis (SDS-PAGE), which was performed in a Protean II xi Multi-Cell apparatus (Bio-Rad, Richmond, Calif.) or on large format (23×23 cm) gels (Investigator 2-D Electrophoresis System, ESA) which were also employed for preparative 2D gel electrophoresis. Electrotransfer to nitrocellulose membranes and subsequent visualizing of the proteins by gold staining was accomplished as previously described (Naaby-Hansen et al, 1997) while electrotransfer to PVDF membranes ([…], Pierce) was carried out as described by Henzel et al. (1993) using the transfer buffer composition of Matsudaira (1987) (10 mM 3-[cyclohexylamino]-1-propanesulfonic acid, 10% methanol, pH 11). The immobilized proteins were visualized by staining in a solution containing 0.1% Commassie R250, 40% methanol and 0.1% acetic acid for one minute, followed by destaining in a solution of 10% acetic acid and 50% methanol for 3×3 minutes.
Motile sperm were harvested by the swim up method of Bronson and Fusi (1990). A control sample was removed and snap frozen (−70 C.), while the remaining sperm were resuspended in one of the following media: Dulbecco's PBS, BWW, BWW plus 3 mM b-cyclodextran (Sigma), BWW plus b-cyclodextran and 100 μμM progesterone, human tubal fluid [HTF] (Irvine) plus HSA (30 mg/ml), HTF plus HSA plus 2, 20 or 100 μμM progesterone, HTF plus HSA plus 100 μμM progesterone plus either 100, 200 or 400 μμM of genestein or daidzein. (Akiyama et al., 1987). Capacitation was achieved by incubating the samples at 37° C. in 5% CO2 with sperm removed at various timepoints and isolated by centrifugation. […]

[2] = test system: T1, recombinant CBP86 (CR-A of CBP86 with C-terminal six-histidine tag, expressed in E. coli)
T1 sequence: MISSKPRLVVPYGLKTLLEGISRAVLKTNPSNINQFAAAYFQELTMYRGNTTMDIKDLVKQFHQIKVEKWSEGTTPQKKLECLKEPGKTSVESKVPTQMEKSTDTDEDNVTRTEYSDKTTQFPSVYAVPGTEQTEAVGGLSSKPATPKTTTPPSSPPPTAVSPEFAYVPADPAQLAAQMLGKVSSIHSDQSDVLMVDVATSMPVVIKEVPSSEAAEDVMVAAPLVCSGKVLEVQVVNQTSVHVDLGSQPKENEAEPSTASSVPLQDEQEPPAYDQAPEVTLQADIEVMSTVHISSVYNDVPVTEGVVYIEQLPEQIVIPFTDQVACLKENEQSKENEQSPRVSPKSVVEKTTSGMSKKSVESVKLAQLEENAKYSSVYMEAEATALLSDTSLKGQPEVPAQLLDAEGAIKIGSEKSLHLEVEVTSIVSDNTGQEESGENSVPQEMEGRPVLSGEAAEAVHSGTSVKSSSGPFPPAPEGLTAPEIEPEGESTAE

Molecule | Capacitation-induced tyrosine phosphorylation of the 86 kDa CBP86 isoforms [1] | further results
O=c1c(-c2ccc(O)cc2)coc2cc(O)ccc12 [daidzein] | had an inhibitory effect on phosphorylation of CBP86 | –
O=c1c(-c2ccc(O)cc2)coc2cc(O)cc(O)c12 [genistein] | inhibited in a concentration dependent manner | –
CC(=O)[C@H]1CC[C@H]2[C@@H]3CCC4=CC(=O)CC[C@]4(C)[C@H]3CC[C@]12C [progesterone] | – | Tyrosine phosphorylation of the most acidic of the CBP86 isoforms ([1]; 100 microM added to HTF+ albumin capacitation media, compared with HTF plus albumin alone): further enhanced the phosphorylation; also recorded: leads to phosphorylation of tyrosine residues on the acidic CBP86 isoforms
baculovirus expressed c-Src (Upstate Biotechnology, Inc.) | – | tyrosine phosphorylation of recombinant CBP86 in an in vitro kinase assay ([32P]ATP, SDS-PAGE, autoradiography) [2]: An increase in tyrosine phosphorylation of CBP86 was noted as its concentration increased in the presence of a constant amount of c-Src
